Test results reported in patent publication US12508241B2, “Peripheral nerve agonists suppress inflammation” (University of Pittsburgh—Of the Commonwealth System of …, priority 2019, dated 2025).

Tests used:
MRGPRD = MRGPRD (Homo sapiens, UniProt Q8TDS7); conditions: cited from earlier work; for activity as MRGPRD agonists relative to β-ala: compared with β-ala
mast cell degranulation [1] = conditions: 5% topical, shaved flank skin twice daily for 2 days, then i.d. compound 48/80, read ten minutes later; figure values in μg per g of tissue, p<0.01
Method: Mice were then given Evans' blue dye i.v. followed by an intradermal injection of compound 48/80. Ten minutes later, the amount of Evans' blue dye present in the skin (μg·g^−1 of tissue) as an indication of the extent of mast cell degranulation was determined by skin biopsy, enzymatic digestion, and […] evaluation.

[2] = system: DNFB contact hypersensitivity; conditions: MRGPRD-DTR mice treated with DT (MRGPRD-ablated), same regimen
Method: Referring to FIG. 2, cohorts of C57BL/6 mice (n=5) were either pre-treated by i.d. injection of b-alanine (WT+b-ala) or vehicle (WT) on the abdomen for 2 days followed by sensitization at the same site with 0.2% DNFB (a chemical sensitizer). Five days later 0.2% DNFB was applied to the ear. The increased degree of ear swelling on the indicated day compared to ear thickness prior to application of DNFB was measured. Increased ear thickness was employed a surrogate for the amount of immune response to DNFB was measured. As a specificity control, MRGPRD-DTR mice treated with DT to ablate MRGPRD-expressing neurons (labeled MRGPRD in FIG. DD), and were treated similarly (MRGPRD and MRGPRD+b-ala).

mast cell degranulation [3] = test: 48/80-mediated mast cell degranulation, Evan's blue dye in the skin, i.d. β-alanine pre-treatment; format: in vivo, C57BL/6 mice
Method: Compound 48/80, the condensation product of N-methyl p-methoxyphenethylamine and formaldehyde, is a well-known chemical that induces rapid mast cell degranulation and associated edema. The degree of edema in the skin is measured by the amount of Evan's blue dye in the skin. […] In mice that lack MRGPRD neurons, β-alanine had no effect on 48/80's ability to activate mast cells (compare columns 5 and 6). This is a specificity control since the neurons that express the receptor for β-alanine are absent.

wound healing pathways = conditions: 100 mM injected twice daily for 2 days, WT C57BL/6; compared with published tape stripping RNAseq data
Method: Wild type C57BL/6 mice were injected with 100 mM β-alanine or vehicle twice daily for 2 days. Skin at the treated sites were harvested and mRNA was obtained and subjected to RNAseq. Genes with increased gene expression in the β-alanine treated group were anayzed by pathway analysis.

Chain of MRGPRD (Q8TDS7 whole entry): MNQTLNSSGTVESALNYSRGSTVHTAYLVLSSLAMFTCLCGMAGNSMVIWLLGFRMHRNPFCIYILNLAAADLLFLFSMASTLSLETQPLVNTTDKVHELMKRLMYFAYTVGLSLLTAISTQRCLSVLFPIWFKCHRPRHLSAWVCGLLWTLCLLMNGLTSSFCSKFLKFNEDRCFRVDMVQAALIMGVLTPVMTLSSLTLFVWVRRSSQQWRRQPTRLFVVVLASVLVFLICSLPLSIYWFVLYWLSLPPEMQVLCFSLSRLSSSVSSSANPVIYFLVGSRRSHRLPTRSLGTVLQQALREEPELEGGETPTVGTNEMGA

| Compound | activity as MRGPRD agonists relative to β-ala (MRGPRD) | mast cell degranulation (dermal Evan's blue dye) (mast cell degranulation [1]) | ear swelling (immune response to DNFB) [2] | Evan's blue dye in the skin (edema, mast cell degranulation) after compound 48/80 (mast cell degranulation [3]; C57BL/6 mice, i.d. pre-treatment for 2 days, then i.d. compound 48/80, FIG. 1 columns 3 and 4) | Evan's blue dye in the skin (48/80's ability to activate mast cells) (mast cell degranulation [3]; mice that lack MRGPRD neurons (specificity control), FIG. 1 columns 5 and 6) | cutaneous mast cell function (mast cell degranulation [3]; wild-type mice (summary statement of Example 1)) | pathways activated in skin (RNAseq pathway analysis) (wound healing pathways) | forskolin-stimulated cAMP production (MRGPRD; cells expressing MRGPRD) |
| --- | --- | --- | --- | --- | --- | --- | --- | --- |
| NCCCC(=O)O [GABA, 4-aminobutanoic acid] | significantly weaker |  |  |  |  |  |  |  |
| CC(CN)C(=O)O (stereo not drawn) [β-AIBA, 3-aminoisobutyric acid] | significantly weaker |  |  |  |  |  |  |  |
| NCCC(=O)O [β-alanine, 3-aminopropanoic acid] |  | suppresses | no effect | inhibited this effect | no effect | sufficient to suppress | activates wound healing pathways | decreases |
